Reference: patent US8227480B2, “Indazole derivative having spiro ring structure in side chain” (Ube Industries, Ltd., priority 2006, dated 2012)
Structures can show the parent of a compound that is named as a salt.

Legend:
[1] = system: cynomolgus monkeys; assay: Test for Measurement of Intraocular Pressure-Reducing Activity; format: in vivo; settings: male cynomolgus monkeys, 0.1% test compound solution instilled into one eye, measured at 2, 4 and 6 hours after instillation, versus vehicle control
From the text: Further, in order to verify the application of the present invention compound to a specific disease associated with Rho kinase, the intraocular pressure-reducing activity of the present invention compound was also studied. The details of the study will be illustrated in the “section of Pharmacological Test (Test for Measurement of Intraocular Pressure-Reducing Activity)” in the Examples which will be mentioned later.
In order to study the usefulness of the present invention compound as a therapeutic agent for glaucoma, an intraocular pressure-reducing effect in the case where the present invention compound was administered to cynomolgus monkeys (sex: male; one group consisting of 4 to 5 monkeys) was evaluated and studied. As a test compound, Example compound 2 (hereinafter referred to as the test compound) was used. […]
2) The intraocular pressure was measured immediately before administration of the test compound solution, which was defined as the initial intraocular pressure. […]
4) At 2, 4 and 6 hours after instillation of the test compound solution, one drop of a 0.4% oxybuprocaine hydrochloride eye drop was instilled into both eyes to achieve local anesthesia and then the intraocular pressure was measured. Measurement of the intraocular pressure for each time was carried out three times and a mean value thereof was calculated. […]

[2] = molecular target: T1, activated ROCK-II (Rattus norvegicus, UniProt Q62868); assay: Test for Evaluation of Rho Kinase Inhibitory Activity; format: biochemical; settings: Ki=IC50/(1+S/Km); [γ-32P]ATP, S6 kinase substrate peptide, 30° C. for 15 minutes
T1 construct: purchased Upstate Biotechnology 14-338
Procedure: In order to find the usefulness of the present invention compound, a Rho kinase inhibitory activity of the present invention compound was evaluated and studied. The details of the evaluation and study will be illustrated in the “section of Pharmacological Test (Test for Evaluation of Rho Kinase Inhibitory Activity)” in the Examples which will be mentioned later. The evaluation and study of the Rho kinase inhibitory activity of the present invention compound were carried out in accordance with the method described in J. Biol. Chem., 274, 32418 (1999) and the method described in the instruction manual for use attached to the commercially available activated ROCK-II [Upstate Biotechnology, Catalog No. 14-338 (5 units/50 μl)].
In order to study the usefulness of the present invention compound as a Rho kinase inhibitor, in accordance with the method described in J. Biol. Chem., 274, 32418 (1999) and the method described in the instruction manual for use attached to the commercially available activated ROCK-II [Upstate Biotechnology, Catalog No. 14-338 (5 units/50 μl)], the Rho kinase inhibitory activity of the present invention compound was evaluated and studied. As a test compound, Example compound 2 was used. […]
7) The filter paper is dipped in ethanol and then dried. Thereafter, the amount of phosphorylated substrate is measured using a liquid scintillation counter. […]

T1 sequence (Q62868 11-552 limits assumed): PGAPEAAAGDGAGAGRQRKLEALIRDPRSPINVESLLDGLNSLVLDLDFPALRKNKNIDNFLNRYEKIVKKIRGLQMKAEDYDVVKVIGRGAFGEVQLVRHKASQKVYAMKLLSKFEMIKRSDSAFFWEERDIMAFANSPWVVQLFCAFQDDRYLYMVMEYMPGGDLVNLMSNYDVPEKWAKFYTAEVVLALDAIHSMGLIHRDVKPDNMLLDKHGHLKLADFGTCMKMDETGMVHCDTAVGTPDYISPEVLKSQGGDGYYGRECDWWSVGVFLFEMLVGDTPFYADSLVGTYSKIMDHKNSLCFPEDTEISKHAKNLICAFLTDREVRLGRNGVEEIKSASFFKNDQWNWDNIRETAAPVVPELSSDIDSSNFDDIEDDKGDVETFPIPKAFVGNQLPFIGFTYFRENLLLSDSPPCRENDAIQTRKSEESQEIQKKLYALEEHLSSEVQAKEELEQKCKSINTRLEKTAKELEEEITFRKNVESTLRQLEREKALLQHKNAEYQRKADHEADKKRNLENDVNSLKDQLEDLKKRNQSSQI

Compound	intraocular pressure-reducing activity (change from the initial intraocular pressure, FIG. 1) [1]	Ki [2] [nM]	melting point
NC1(c2ccc(-c3ccc4[nH]ncc4c3C3CC3)nc2)CC2(CC2)C1 [Example compound 2, 5-{5-(5-amino-spiro[2,3]hex-5-yl)pyridin-2-yl}}-4-cyclopropyl-1H-indazole Dihydrochloride]	excellent intraocular pressure-reducing activity	3.5	
NC1(c2ccc(-c3ccc4[nH]ncc4c3C3CC3)nc2)CC2(CC2)C1 (as salt: hydrochloride) [Example compound 2, 5-{5-(5-amino-spiro[2,3]hex-5-yl)pyridin-2-yl}}-4-cyclopropyl-1H-indazole Dihydrochloride]			> 300 °C (dec.)
CC(C)(C)OC(=O)NC1(c2ccc(-c3ccc4c(cnn4C4CCCCO4)c3C3CC3)nc2)CC2(CC2)C1 (stereo not shown) [Example compound 1]			199 to 202 °C
